According to patent US20090169540A1, “Use Of An Antagonist Of Epac For Treating Human Cardiac Hypertrophy” (priority 2005, published 2009):
Read-outs that look alike come from different tables or passages of the source.

How the values were obtained:
Rac [1] = assay: Rac activation assay (Rac-GTP pull-down), primary rat ventricular cardiomyocytes; format: cell-based
[2] = test system: neonatal rat ventricular myocytes; assay: Cell surface area by computer-assisted planimetry, neonatal cardiomyocytes; format: cell-based; conditions: for Cell surface area: 8-CPT 1 μM or PE 1 μM or adenovirus, compared to control Ad.GFP
[3] = test system: neonatal rat ventricular myocytes; assay: [3H]-leucine incorporation (protein synthesis), neonatal cardiomyocytes; format: cell-based; conditions: 8-CPT 1 μM, PE 1 μM or adenovirus
Rac [4] = assay: Rac activation assay (Rac-GTP pull-down), HL-1 atrial cells; format: cell-based, mouse
Experimental: Rac activation was determined as above. […] Rac-GTP samples and total lysates were separated on SDS-PAGE gels and transferred onto a polyvinylidene difluoride (PVDF) membrane (Amersham Pharmacia Biotech).

[5] = test system: neonatal rat ventricular myocytes; assay: Sarcomeric / cytoskeletal organization by phalloidin staining, neonatal cardiomyocytes; format: cell-based; conditions: 48 h; 8-CPT (1 mM) and PE (1 mM) as printed, in Ad.GFP cells; vs Ad.GFP alone
ANF promoter (ANF-Luc) = assay: ANF-Luc reporter gene assay in neonatal cardiomyocytes; format: cell-based, rat; conditions: 8-CPT 1 μM, compared to control cells
Experimental: FIGS. 2A, 2C and 2D: Neonatal cardiomycoytes were transfected with ANF-Luc (FIG. 2A), SkM-α-actin-Luc (FIG. 2C) or c-fos-SRE-Luc (FIG. 2D) and EpacWT, RacG12V or the empty vector (mock) as control and treated or not with 8-CPT (1 μM). Two days after transfection, cells were assayed for luciferase activity. Results are expressed as percentage activation of control. Results are means±S.E.M. for 3 independent experiments performed in triplicates.
In FIGS. 8A, 8B and 8C, cardiomyocytes infected with Ad.GFP (control), Ad.RacS17N, Ad.EpacWT, or Ad.EpacWT and Ad.RacS17N were transfected with NFAT-Luc, MEF2-Luc or ANF-Luc. Two days after, Luc activity was determined. Luc activity was normalized to control for each experiment, and were expressed as means±S.E.M of at least 3 separate experiments performed in triplicate
The plasmid constructs were generously provided by the following: a −3003 bp fragment of the rat ANF promoter fused to the luciferase reporter gene (ANF-Luc) by Dr. K. Knowlton, Luciferase reporter genes linked to promoters for skeletal muscle α-actin (SkM-α-actin-Luc) and serum response element-regulated c-fos (c-fos-SRE-Luc) by Dr. M. D. Schneider, Epac1 plasmid constructs by Dr. J. Bos. […]

[6] = test system: neonatal rat ventricular myocytes; format: cell-based
[7] = cited from earlier work
MEF2 (MEF2-Luc) = assay: MEF2-Luc transcriptional activity in cardiomyocytes; format: cell-based, rat; conditions: cells infected with Ad.EpacWT or Ad.Epac-DcAMP; CsA 0.5 μM, KN-93 1 μM, or co-infection

CO[C@@H]1[C@@H]2OP(=O)(O)OC[C@H]2O[C@H]1n1c(Sc2ccc(Cl)cc2)nc2c(N)ncnc21 [8-CPT, 8-(4-chloro-phenylthio)-2′-O-methyladenosine-3′-5′cyclic monophosphate]
Rac activation in cells infected with Ad.EpacWT (Rac [1]; Ad.EpacWT-infected cells treated with 8-CPT 1 μM for 10 min): further increased | Rac activation (Rac-GTP) (Rac [1]; activation of endogenous Epac, 8-CPT 1 μM, 10 min, rat cardiac myocytes): increased Rac activation | Cell surface area ([2]; 2 days): two fold increase | Effect of Ad.EpacWT on cell surface area in the presence of 8-CPT ([2]; Ad.EpacWT-infected cells plus 8-CPT 1 μM): not further increased | Protein synthesis ([3H]-leucine uptake) [3]: approximate two fold increase | Amount of Rac-GTP / Rac activation (Rac [4]; HL-1 adult mouse atrial cells, 100 μM, 10 min exposure): strong increase in the amount of Rac-GTP | Treatment time upon which 8-CPT-induced Rac activation was detected (Rac [4]; HL-1 cells, 8-CPT 10 μM time course (FIG. 1C)): 5 min | Cytoskeletal (F-actin) / sarcomeric organization [5]: apparent increase of the F-actin meshwork and an heavily striated appearance | Activation of the ANF-Luc reporter gene (ANF promoter (ANF-Luc)): three fold activation | Frequency of spontaneous Ca2+ transients [6]: 0.51±0.04 Hz | Frequency of spontaneous Ca2+ transients ([6]; 8-CPT 100 nM, physiological external [Ca2+], n=13): 0.40±0.05 Hz | Ca2+ spike frequency ([6]; 8-CPT 10 μM in the presence of 20 mM external Cs+, n=8): 1.25±0.35 Hz | Effect on Ca2+ transients ([6]; 8-CPT 10 μM, absence of external Ca2+): had no effect | Amplitude of Ca2+ spikes ([6]; 8-CPT 10 μM, physiological external [Ca2+]): without changing the amplitude of the spikes | Ca2+ spike frequency ([6]; 8-CPT 100 μM, absence of external Ca2+, n=4): 0.12±0.02 Hz | Ca2+ spike frequency ([6]; 8-CPT 100 μM, absence of external Ca2+, presence of H89 1 μM, n=8): 0.23±0.049 Hz

CCCCc1oc2ccccc2c1C(=O)c1cc(I)c(OCCN(CC)CC)c(I)c1 [Amiodarone]
Hypothyroidism incidence ([7]; as high as, in some series): 8%-19% | Hyperthyroidism incidence ([7]; human, in vivo): about 2% | Liver function test abnormalities incidence ([7]; human, in vivo): 4%-9% | Other serious side effect ([7]; human, in vivo): optic neuropathy, which can lead to blindness | Proarrhythmia incidence ([7]; human, in vivo): 2%-5% | Hypothyroidism incidence ([7]; in some cases): 2%-4%

C[C@H](CCC(=O)O)C[C@H](C)C[C@H](C)C(=O)/C=C(\O)[C@H](C)C[C@H](C)C/C=C/[C@@H](C)[C@@H](O)[C@@H](C)[C@@H](O)C[C@@H]1CC[C@@](C)([C@H]2CC[C@@](C)([C@@H](C)O)O2)O1 [ionomycin]
Effect on Rac activation relative to positive control PE (1 μM) (Rac [1]; ionomycin 1 μM vs PE 1 μM 15 min): as potent as PE | Rac activation (Rac [1]; ionomycin 1 μM, different times of incubation): increased Rac activation in a time dependent manner

COc1ccc(S(=O)(=O)N(CCO)c2ccccc2CN(C)C/C=C/c2ccc(Cl)cc2)cc1 [KN-93]
Ad.Epac-DcAMP-induced increase in cell surface area ([2]; KN-93 1 μM, 2 days): significantly decreased | Epac-induced MEF2 transcriptional (luciferase) activity (MEF2 (MEF2-Luc)): completely blocked

O=S(=O)(NCCNC/C=C/c1ccc(Br)cc1)c1cccc2cnccc12 [H89]
8-CPT-induced increase in Ca2+ transients frequency ([6]; H89 1 μM, 8-CPT 100 μM, absence of external Ca2+): failed to block

CNC[C@H](O)c1cccc(O)c1 [PE, phenylephrine]
Cell surface area ([2]; 2 days): Identical results | Protein synthesis ([3H]-leucine uptake) [3]: approximate two fold increase | Cytoskeletal (F-actin) / sarcomeric organization [5]: comparable
